Measurements taken from ChEMBL document CHEMBL1201862, “PubChem BioAssay data set” (2004).
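How tested: cells in 96-well plates exposed to compound for 48 hours at five concentrations. GI50 = concentration required for 50% inhibition of growth.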 The source made the active and inactive calls. Rule as the data show it: active = GI50 up to about 1.1 µM and inactive = higher.

Legend:
Assay in all cases: NCI tumour cell line growth inhibition, 48 h
BT-549 = test system: BT-549
MDA-MB-231 = test system: MDA-MB-231
M14 = test system: M14
NCI-H23 = test system: NCI-H23
T47D = test system: T47D
786-0 = test system: 786-0
PC-3 = test system: PC-3
UACC-62 = test system: UACC-62
MDA-N = test system: MDA-N
HOP-92 = test system: HOP-92
OVCAR-4 = test system: OVCAR-4
OVCAR-8 = test system: OVCAR-8
ACHN = test system: ACHN
UACC-257 = test system: UACC-257
RXF 393 = test system: RXF 393
EKVX = test system: EKVX
DU-145 = test system: DU-145
TK-10 = test system: TK-10
SK-MEL-28 = test system: SK-MEL-28
CCRF-CEM = test system: CCRF-CEM

SMILES	GI50 (BT-549)	GI50 (MDA-MB-231)	GI50 (M14)	GI50 (NCI-H23)	GI50 (T47D)	GI50 (786-0)	GI50 (PC-3)	GI50 (UACC-62)	GI50 (MDA-N)	GI50 (HOP-92)	GI50 (OVCAR-4)	GI50 (OVCAR-8)	GI50 (ACHN)	GI50 (UACC-257)	GI50 (RXF 393)	GI50 (EKVX)	GI50 (DU-145)	GI50 (TK-10)	GI50 (SK-MEL-28)	GI50 (CCRF-CEM)
CC(C)(C)OC(=O)NCCCCC1NC(=O)[C@@H]2Cc3c([nH]c4ccccc34)C(C3CCCCC3)N2C1=O (some centres not stated)	47.6 µM (inactive)	31.6 µM (inactive)	22.9 µM (inactive)	49.8 µM (inactive)	12.9 µM (inactive)	27 µM (inactive)	18.3 µM (inactive)	32.4 µM (inactive)	25.4 µM (inactive)	26 µM (inactive)	35.8 µM (inactive)	43 µM (inactive)	45.6 µM (inactive)	35.7 µM (inactive)	4.23 µM (inactive)	33.7 µM (inactive)	54.8 µM (inactive)	21.8 µM (inactive)	85.1 µM (inactive)	
CC(C)C(C/C=C1\CC(CO)(COC(=O)CC(C(C)C)C(C)C)OC1=O)C(C)C (configuration not stated)	14.6 µM (inactive)	12.8 µM (inactive)	11.7 µM (inactive)	15 µM (inactive)	13.3 µM (inactive)	7.03 µM (inactive)	11.7 µM (inactive)	15.1 µM (inactive)	2.96 µM (inactive)	0.902 µM (active)	17.6 µM (inactive)	17.9 µM (inactive)	10.3 µM (inactive)	15.6 µM (inactive)	14.5 µM (inactive)	10 µM (inactive)	8.85 µM (inactive)	7.31 µM (inactive)	14.9 µM (inactive)	4.06 µM (inactive)
O=C(O)c1cccc(/[As]=[As]\c2cccc(C(=O)O)c2)c1 (configuration not stated)	70.6 µM (inactive)	21.6 µM (inactive)	45.9 µM (inactive)	31 µM (inactive)	34.9 µM (inactive)	24.8 µM (inactive)	16.9 µM (inactive)	33.3 µM (inactive)	61.1 µM (inactive)	18.7 µM (inactive)	51.9 µM (inactive)	34.6 µM (inactive)	73.3 µM (inactive)	40.9 µM (inactive)	26.9 µM (inactive)	59.8 µM (inactive)	86.5 µM (inactive)	23.2 µM (inactive)	> 100 µM (inactive)	21.9 µM (inactive)
C=C1C2CCC3(CCC4C5(C)CCCC4(C=[N+](CCO)C5)C3C2)C1O (configuration not stated)	> 100 µM (inactive)	> 100 µM (inactive)	> 100 µM (inactive)	> 100 µM (inactive)	> 100 µM (inactive)	> 100 µM (inactive)	> 100 µM (inactive)	> 100 µM (inactive)	> 100 µM (inactive)	> 100 µM (inactive)	> 100 µM (inactive)	> 100 µM (inactive)	> 100 µM (inactive)	> 100 µM (inactive)	> 100 µM (inactive)	> 100 µM (inactive)	> 100 µM (inactive)	> 100 µM (inactive)	> 100 µM (inactive)	> 100 µM (inactive)
COC(=O)c1ccccc1NC(=O)/C(=N\NC(C)(C)C)C(C#N)c1nc(-c2ccc([N+](=O)[O-])cc2)cs1 (configuration not stated)	> 100 µM (inactive)	> 100 µM (inactive)	> 100 µM (inactive)	> 100 µM (inactive)	> 100 µM (inactive)	> 100 µM (inactive)	> 100 µM (inactive)	> 100 µM (inactive)	> 100 µM (inactive)	> 100 µM (inactive)	> 100 µM (inactive)	> 100 µM (inactive)	> 100 µM (inactive)	> 100 µM (inactive)	> 100 µM (inactive)	> 100 µM (inactive)	> 100 µM (inactive)		> 100 µM (inactive)	> 100 µM (inactive)
NS(=O)(=O)c1ccc(-c2ccc([As](=O)(O)O)cc2)cc1	> 100 µM (inactive)	> 100 µM (inactive)	> 100 µM (inactive)	> 100 µM (inactive)	> 100 µM (inactive)	> 100 µM (inactive)	> 100 µM (inactive)	> 100 µM (inactive)	> 100 µM (inactive)	> 100 µM (inactive)	> 100 µM (inactive)	> 100 µM (inactive)	> 100 µM (inactive)	32.6 µM (inactive)	> 100 µM (inactive)	> 100 µM (inactive)	> 100 µM (inactive)	> 100 µM (inactive)	> 100 µM (inactive)	
OC1CSCCCSCCSCCCSC1	> 100 µM (inactive)	> 100 µM (inactive)	> 100 µM (inactive)	> 100 µM (inactive)	> 100 µM (inactive)	> 100 µM (inactive)	> 100 µM (inactive)	> 100 µM (inactive)	> 100 µM (inactive)	> 100 µM (inactive)	> 100 µM (inactive)	> 100 µM (inactive)	> 100 µM (inactive)	> 100 µM (inactive)	> 100 µM (inactive)	> 100 µM (inactive)	> 100 µM (inactive)	> 100 µM (inactive)	> 100 µM (inactive)	
CCOc1ccc(/N=N/c2ccc3cc(/C(C)=N/NC(=O)/C(C#N)=C\c4ccc(N(CCC#N)CCC#N)cc4)c(=O)oc3c2)cc1	> 10 µM (inactive)	> 10 µM (inactive)	> 10 µM (inactive)	> 10 µM (inactive)	> 10 µM (inactive)	> 10 µM (inactive)	> 10 µM (inactive)	> 10 µM (inactive)	> 10 µM (inactive)	> 10 µM (inactive)	> 10 µM (inactive)	> 10 µM (inactive)	> 10 µM (inactive)	> 10 µM (inactive)	> 10 µM (inactive)	> 10 µM (inactive)	> 10 µM (inactive)	> 10 µM (inactive)	> 10 µM (inactive)	> 10 µM (inactive)
O=c1cc(NNc2cccc(Cl)c2)[nH]c(=O)[nH]1	> 100 µM (inactive)	17.9 µM (inactive)	16.7 µM (inactive)	59.8 µM (inactive)	> 100 µM (inactive)	16.2 µM (inactive)	75.3 µM (inactive)	31.6 µM (inactive)	73.8 µM (inactive)	18.5 µM (inactive)	> 100 µM (inactive)		38.9 µM (inactive)	44.3 µM (inactive)	> 100 µM (inactive)		72.3 µM (inactive)	20.8 µM (inactive)	95.9 µM (inactive)	21.6 µM (inactive)
COc1ccc(C2(CC(C)C)CCNC2)cc1OC (configuration not stated)	> 100 µM (inactive)	> 100 µM (inactive)	> 100 µM (inactive)	78.2 µM (inactive)	31.5 µM (inactive)	> 100 µM (inactive)	> 100 µM (inactive)	> 100 µM (inactive)	> 100 µM (inactive)	19.8 µM (inactive)	> 100 µM (inactive)	> 100 µM (inactive)	> 100 µM (inactive)	> 100 µM (inactive)	41.9 µM (inactive)	86.1 µM (inactive)	> 100 µM (inactive)	> 100 µM (inactive)	> 100 µM (inactive)	> 100 µM (inactive)
COC(=O)c1c2c(cc3c1CC1(C3)Cc3ccc4c(c3C1=O)CCC4)CCC2 (configuration not stated)	2.52 µM (inactive)	2.01 µM (inactive)	3.03 µM (inactive)	3.74 µM (inactive)	5.13 µM (inactive)	3.51 µM (inactive)	1.79 µM (inactive)	2.26 µM (inactive)	0.608 µM (active)	1.84 µM (inactive)	10.2 µM (inactive)	4.61 µM (inactive)	5.15 µM (inactive)	5.04 µM (inactive)	0.537 µM (active)	8.17 µM (inactive)	4.65 µM (inactive)	8.49 µM (inactive)	6.67 µM (inactive)	3.63 µM (inactive)
O=C1c2ccccc2-c2ccc(/N=N/c3c(O)ccc4ccccc34)cc21	> 100 µM (inactive)	> 100 µM (inactive)	> 100 µM (inactive)	> 100 µM (inactive)	> 100 µM (inactive)	> 100 µM (inactive)	> 100 µM (inactive)	> 100 µM (inactive)	> 100 µM (inactive)	> 100 µM (inactive)	> 100 µM (inactive)	> 100 µM (inactive)		> 100 µM (inactive)	> 100 µM (inactive)	> 100 µM (inactive)	> 100 µM (inactive)	> 100 µM (inactive)	> 100 µM (inactive)	15.4 µM (inactive)
Cc1c(C2CCSc3ccccc3N2)sc2ccccc12 (configuration not stated)	> 100 µM (inactive)	> 100 µM (inactive)	> 100 µM (inactive)	> 100 µM (inactive)	87.9 µM (inactive)	> 100 µM (inactive)	> 100 µM (inactive)	> 100 µM (inactive)	39.8 µM (inactive)	> 100 µM (inactive)	62.7 µM (inactive)	> 100 µM (inactive)	> 100 µM (inactive)	99.8 µM (inactive)	86.5 µM (inactive)	30.9 µM (inactive)	> 100 µM (inactive)	> 100 µM (inactive)	> 100 µM (inactive)	
CC1=C[C@@H](C)C[C@]2(C)CC[C@H](O2)[C@]23CC[C@](C(=O)O)(C[C@H](O2)[C@@H]2O[C@@](C)(CC2=O)[C@@H](O)[C@H]2CC[C@@]4(CCC[C@@H](O4)[C@H](C)C(=O)O[C@H]4C[C@H]([C@]5(O)OCC[C@H](C)[C@@H]5O)O[C@H]4C=C1)O2)O3	> 7.83 µM (inactive)	> 10 µM (inactive)	> 9.38 µM (inactive)	> 10 µM (inactive)	> 10 µM (inactive)	> 10 µM (inactive)	> 10 µM (inactive)	> 9.02 µM (inactive)	> 8.95 µM (inactive)	> 3.92 µM (inactive)	> 10 µM (inactive)	> 10 µM (inactive)	> 10 µM (inactive)	> 10 µM (inactive)	> 10 µM (inactive)	> 10 µM (inactive)	> 10 µM (inactive)	> 7.62 µM (inactive)	> 10 µM (inactive)	> 10 µM (inactive)
